Measured values published in ChEMBL document CHEMBL1134924, “An efficient and practical method for solid-phase synthesis of tripeptide-bearing glycopeptide antibiotics: combinatorial parallel synthesis of carboxamide derivatives of chloroorienticin B” (2002).
Converted amounts (≈) assume the structure as drawn.

Columns and labels:
Format in all cases: functional
[1] = test system: Enterococcus faecium; assay: In vitro antibacterial activity against VRE (Vancomycin Resistant Enterococcus faecium SR-7917)
[2] = test system: Enterococcus faecalis; assay: In vitro antibacterial activity against VRE (Vancomycin Resistant Enterococcus faecalis SR-7914)
[3] = test system: Staphylococcus aureus; assay: In vitro antibacterial activity against MRSA (Methicillin Resistant Staphylococcus aureus SR-3637)

## CN[C@H](CC(C)C)C(=O)N[C@H]1C(=O)N[C@@H](CC(N)=O)C(=O)N[C@H]2C(=O)N[C@H]3C(=O)NC(C(=O)N[C@@H](C(=O)NC(=O)[C@H](CCC(=O)O)NC(=O)CNC(=O)[C@@H](N)Cc4ccc(O)cc4)c4cc(O)cc(O)c4-c4cc3ccc4O)[C@H](O[C@H]3C[C@](C)(N)[C@@H](O)[C@H](C)O3)c3ccc(c(Cl)c3)Oc3cc2cc(c3O[C@@H]2O[C@H](CO)[C@@H](O)[C@H](O)[C@H]2O)Oc2ccc(cc2Cl)[C@H]1O
[1]
  MIC: > 128 µg/mL
[2]
  MIC: > 128 µg/mL
[3]
  MIC: 4 µg/mL (≈ 2.23 µM)

## CN[C@H](CC(C)C)C(=O)N[C@H]1C(=O)N[C@@H](CC(N)=O)C(=O)N[C@H]2C(=O)N[C@H]3C(=O)NC(C(=O)N[C@@H](C(=O)NC(=O)[C@H](CCCCN)NC(=O)[C@H](Cc4c[nH]c5ccccc45)NC(=O)[C@@H](N)CC(C)C)c4cc(O)cc(O)c4-c4cc3ccc4O)[C@H](O[C@H]3C[C@](C)(N)[C@@H](O)[C@H](C)O3)c3ccc(c(Cl)c3)Oc3cc2cc(c3O[C@@H]2O[C@H](CO)[C@@H](O)[C@H](O)[C@H]2O)Oc2ccc(cc2Cl)[C@H]1O
[1]
  MIC: 16 µg/mL (≈ 8.53 µM)
[2]
  MIC: 32 µg/mL (≈ 17.1 µM)
[3]
  MIC: 0.5 µg/mL (≈ 0.267 µM)

## CN[C@H](CC(C)C)C(=O)N[C@H]1C(=O)N[C@@H](CC(N)=O)C(=O)N[C@H]2C(=O)N[C@H]3C(=O)NC(C(=O)N[C@@H](C(=O)NC(=O)[C@H](CCCCN)NC(=O)CNC(=O)[C@@H](N)Cc4ccc(O)cc4)c4cc(O)cc(O)c4-c4cc3ccc4O)[C@H](O[C@H]3C[C@](C)(N)[C@@H](O)[C@H](C)O3)c3ccc(c(Cl)c3)Oc3cc2cc(c3O[C@@H]2O[C@H](CO)[C@@H](O)[C@H](O)[C@H]2O)Oc2ccc(cc2Cl)[C@H]1O
[1]
  MIC: 64 µg/mL (≈ 35.6 µM)
[2]
  MIC: 128 µg/mL (≈ 71.2 µM)
[3]
  MIC: 0.5 µg/mL (≈ 0.278 µM)

## CN[C@H](CC(C)C)C(=O)N[C@H]1C(=O)N[C@@H](CC(N)=O)C(=O)N[C@H]2C(=O)N[C@H]3C(=O)N[C@H](C(=O)N[C@H](C(=O)NC(=O)[C@H](Cc4c[nH]cn4)NC(=O)[C@@H]4CCCN4C(=O)[C@@H](N)Cc4c[nH]c5ccccc45)c4cc(O)cc(O)c4-c4cc3ccc4O)[C@H](O[C@H]3C[C@](C)(N)[C@@H](O)[C@H](C)O3)c3ccc(c(Cl)c3)Oc3cc2cc(c3OC2O[C@H](CO)[C@@H](O)[C@H](O)[C@H]2O)Oc2ccc(cc2Cl)[C@H]1O (some centres not stated)
[1]
  MIC: 16 µg/mL (≈ 8.56 µM)
[2]
  MIC: 64 µg/mL (≈ 34.2 µM)
[3]
  MIC: 0.5 µg/mL (≈ 0.268 µM)

## CN[C@H](CC(C)C)C(=O)N[C@H]1C(=O)N[C@@H](CC(N)=O)C(=O)N[C@H]2C(=O)N[C@H]3C(=O)NC(C(=O)N[C@@H](C(=O)NC(=O)[C@H](Cc4c[nH]cn4)NC(=O)[C@H](Cc4c[nH]c5ccccc45)NC(=O)[C@@H](N)Cc4ccc(O)cc4)c4cc(O)cc(O)c4-c4cc3ccc4O)[C@H](O[C@H]3C[C@](C)(N)[C@@H](O)[C@H](C)O3)c3ccc(c(Cl)c3)Oc3cc2cc(c3O[C@@H]2O[C@H](CO)[C@@H](O)[C@H](O)[C@H]2O)Oc2ccc(cc2Cl)[C@H]1O
[1]
  MIC: 8 µg/mL (≈ 4.13 µM)
[2]
  MIC: 16 µg/mL (≈ 8.27 µM)
[3]
  MIC: 0.5 µg/mL (≈ 0.258 µM)

## CN[C@H](CC(C)C)C(=O)N[C@H]1C(=O)N[C@@H](CC(N)=O)C(=O)N[C@H]2C(=O)N[C@H]3C(=O)NC(C(=O)N[C@@H](C(=O)NC(=O)CNC(=O)[C@H](Cc4c[nH]cn4)NC(=O)[C@@H](N)Cc4c[nH]c5ccccc45)c4cc(O)cc(O)c4-c4cc3ccc4O)[C@H](O[C@H]3C[C@](C)(N)[C@@H](O)[C@H](C)O3)c3ccc(c(Cl)c3)Oc3cc2cc(c3O[C@@H]2O[C@H](CO)[C@@H](O)[C@H](O)[C@H]2O)Oc2ccc(cc2Cl)[C@H]1O
[1]
  MIC: 16 µg/mL (≈ 8.75 µM)
[2]
  MIC: 32 µg/mL (≈ 17.5 µM)
[3]
  MIC: 0.25 µg/mL (≈ 0.137 µM)

## CN[C@H](CC(C)C)C(=O)N[C@H]1C(=O)N[C@@H](CC(N)=O)C(=O)N[C@H]2C(=O)N[C@H]3C(=O)NC(C(=O)N[C@@H](C(=O)NC(=O)CNC(=O)[C@H](Cc4c[nH]c5ccccc45)NC(=O)[C@@H](N)CCCCN)c4cc(O)cc(O)c4-c4cc3ccc4O)[C@H](O[C@H]3C[C@](C)(N)[C@@H](O)[C@H](C)O3)c3ccc(c(Cl)c3)Oc3cc2cc(c3O[C@@H]2O[C@H](CO)[C@@H](O)[C@H](O)[C@H]2O)Oc2ccc(cc2Cl)[C@H]1O
[1]
  MIC: 32 µg/mL (≈ 17.6 µM)
[2]
  MIC: 64 µg/mL (≈ 35.2 µM)
[3]
  MIC: 0.25 µg/mL (≈ 0.137 µM)

## CN[C@H](CC(C)C)C(=O)N[C@H]1C(=O)N[C@@H](CC(N)=O)C(=O)N[C@H]2C(=O)N[C@H]3C(=O)NC(C(=O)N[C@@H](C(=O)NC(=O)[C@H](Cc4ccc(O)cc4)NC(=O)[C@H](Cc4c[nH]c5ccccc45)NC(=O)[C@@H](N)CCC(=O)O)c4cc(O)cc(O)c4-c4cc3ccc4O)[C@H](O[C@H]3C[C@](C)(N)[C@@H](O)[C@H](C)O3)c3ccc(c(Cl)c3)Oc3cc2cc(c3O[C@@H]2O[C@H](CO)[C@@H](O)[C@H](O)[C@H]2O)Oc2ccc(cc2Cl)[C@H]1O
[1]
  MIC: > 128 µg/mL
[2]
  MIC: > 128 µg/mL
[3]
  MIC: 8 µg/mL (≈ 4.15 µM)

## CN[C@H](CC(C)C)C(=O)N[C@H]1C(=O)N[C@@H](CC(N)=O)C(=O)N[C@H]2C(=O)N[C@H]3C(=O)NC(C(=O)N[C@@H](C(=O)NC(=O)[C@H](CO)NC(=O)[C@H](Cc4c[nH]c5ccccc45)NC(=O)[C@@H](N)Cc4ccc(O)cc4)c4cc(O)cc(O)c4-c4cc3ccc4O)[C@H](OC3C[C@](C)(N)[C@@H](O)[C@H](C)O3)c3ccc(c(Cl)c3)Oc3cc2cc(c3O[C@@H]2O[C@H](CO)[C@@H](O)[C@H](O)[C@H]2O)Oc2ccc(cc2Cl)[C@H]1O (some centres not stated)
[1]
  MIC: 16 µg/mL (≈ 8.49 µM)
[2]
  MIC: 32 µg/mL (≈ 17 µM)
[3]
  MIC: 0.5 µg/mL (≈ 0.265 µM)

## CN[C@H](CC(C)C)C(=O)N[C@H]1C(=O)N[C@@H](CC(N)=O)C(=O)N[C@H]2C(=O)N[C@H]3C(=O)NC(C(=O)N[C@@H](C(=O)NC(=O)[C@H](CCCCN)NC(=O)[C@H](Cc4ccc(O)cc4)NC(=O)[C@@H](N)CC(C)C)c4cc(O)cc(O)c4-c4cc3ccc4O)[C@H](O[C@H]3C[C@](C)(N)[C@@H](O)[C@H](C)O3)c3ccc(c(Cl)c3)Oc3cc2cc(c3O[C@@H]2O[C@H](CO)[C@@H](O)[C@H](O)[C@H]2O)Oc2ccc(cc2Cl)[C@H]1O
[1]
  MIC: 32 µg/mL (≈ 17.3 µM)
[2]
  MIC: 128 µg/mL (≈ 69.1 µM)
[3]
  MIC: 0.5 µg/mL (≈ 0.27 µM)

## CN[C@H](CC(C)C)C(=O)N[C@H]1C(=O)N[C@@H](CC(N)=O)C(=O)N[C@H]2C(=O)N[C@H]3C(=O)NC(C(=O)N[C@@H](C(=O)NC(=O)[C@H](Cc4ccc(O)cc4)NC(=O)[C@H](Cc4c[nH]cn4)NC(=O)[C@@H](N)CCCCN)c4cc(O)cc(O)c4-c4cc3ccc4O)[C@H](O[C@H]3C[C@](C)(N)[C@@H](O)[C@H](C)O3)c3ccc(c(Cl)c3)Oc3cc2cc(c3O[C@@H]2O[C@H](CO)[C@@H](O)[C@H](O)[C@H]2O)Oc2ccc(cc2Cl)[C@H]1O
[1]
  MIC: 64 µg/mL (≈ 34.1 µM)
[2]
  MIC: 128 µg/mL (≈ 68.2 µM)
[3]
  MIC: 1 µg/mL (≈ 0.533 µM)

## CN[C@H](CC(C)C)C(=O)N[C@H]1C(=O)N[C@@H](CC(N)=O)C(=O)N[C@H]2C(=O)N[C@H]3C(=O)NC(C(=O)N[C@@H](C(=O)NC(=O)[C@H](Cc4ccc(O)cc4)NC(=O)[C@H](Cc4c[nH]c5ccccc45)NC(=O)[C@@H](N)CC(C)C)c4cc(O)cc(O)c4-c4cc3ccc4O)[C@H](O[C@H]3C[C@](C)(N)[C@@H](O)[C@H](C)O3)c3ccc(c(Cl)c3)Oc3cc2cc(c3O[C@@H]2O[C@H](CO)[C@@H](O)[C@H](O)[C@H]2O)Oc2ccc(cc2Cl)[C@H]1O
[1]
  MIC: 8 µg/mL (≈ 4.19 µM)
[2]
  MIC: 16 µg/mL (≈ 8.37 µM)
[3]
  MIC: 0.5 µg/mL (≈ 0.262 µM)

## CN[C@H](CC(C)C)C(=O)N[C@H]1C(=O)N[C@@H](CC(N)=O)C(=O)N[C@H]2C(=O)N[C@H]3C(=O)NC(C(=O)N[C@@H](C(=O)NC(=O)[C@H](Cc4c[nH]cn4)NC(=O)[C@H](CCCCN)NC(=O)[C@@H](N)Cc4c[nH]c5ccccc45)c4cc(O)cc(O)c4-c4cc3ccc4O)[C@H](O[C@H]3C[C@](C)(N)[C@@H](O)[C@H](C)O3)c3ccc(c(Cl)c3)Oc3cc2cc(c3O[C@@H]2O[C@H](CO)[C@@H](O)[C@H](O)[C@H]2O)Oc2ccc(cc2Cl)[C@H]1O
[1]
  MIC: 8 µg/mL (≈ 4.21 µM)
[2]
  MIC: 64 µg/mL (≈ 33.7 µM)
[3]
  MIC: < 0.125 µg/mL

## CN[C@H](CC(C)C)C(=O)N[C@H]1C(=O)N[C@@H](CC(N)=O)C(=O)N[C@H]2C(=O)N[C@H]3C(=O)NC(C(=O)N[C@@H](C(=O)O)c4cc(O)cc(O)c4-c4cc3ccc4O)[C@H](O[C@H]3C[C@](C)(N)[C@@H](O)[C@H](C)O3)c3ccc(c(Cl)c3)Oc3cc2cc(c3O[C@@H]2O[C@H](CO)[C@@H](O)[C@H](O)[C@H]2O)Oc2ccc(cc2Cl)[C@H]1O
[1]
  MIC: > 128 µg/mL
[2]
  MIC: > 128 µg/mL
[3]
  MIC: 0.5 µg/mL (≈ 0.345 µM)
